In series [1] the test system is HT-29. The series is described as follows: Antiproliferative assay (MTT). The format is cell-based. Particulars: Homo sapiens, HT-29 (colon), read-out: Antiproliferative activity IC50 ± SEM, HT-29. From the text: (§1) The MTT test was employed for this investigation ([Hisham et al., 2022]; [El-Sherief et al., 2019]; [Ramadan et al., 2020]). Table 2 presents the four cancer cell lines’ median inhibitory concentration (IC50) and GI50 (average IC50) values.
(§2) The MTT test was employed for this investigation ([Hisham et al., 2022]; [El-Sherief et al., 2019]; [Ramadan et al., 2020]). The IC50 values were derived from dose-response tests. The reported data are derived from at least two independent studies, each comprising three replicates per concentration. See Supplementary Material A1 for more details.
(§3) (in 0.1% DMSO) were added (in 200 μL medium to yield a final concentration of 0.1% v/v) to the wells of plates. A single compound was designated with four wells followed by incubation of plates for 96h at 37°C. After incubation, medium was removed completely from the plates followed by addition of MTT (0.4 mg/mL in medium) to each well and subsequent incubation of plates for 3h. MTT (along with the medium) was removed and DMSO (150μL) was added to each well of the culture plates, followed by vertexing and subsequent measurement of absorbance (at 540 nm) using microplate reader. The data are shown as percentage inhibition of proliferation in comparison with controls containing 0.1% DMSO.
(§4) 4.2.1.2. Assay for antiproliferative effect […]
(§5) (10%) and 1 µg/mL each of aprotinin, leupeptin and pepstatin for 120 min. The purification was performed either at 4 °C or on ice. To record autophosphorylation level, EGFR kinase assay was carried out on the basis of DELFIA/Time-Resolved Fluorometry. The compounds were first
(§6) (1 picture or pasted object on this page, not shown here)

For series [2], the system named is Panc-1. The series is described as follows: Antiproliferative assay (MTT). The format is cell-based. The settings on record: Homo sapiens, Panc-1 (pancreatic), read-out: Antiproliferative activity IC50 ± SEM, Panc-1.
From the text: as §1, §2, §3, §4, §5, §6

The test system of series [3] is MCF-7. The series can be described thus: Antiproliferative assay (MTT). The series is classed as cell-based. The settings on record: Homo sapiens, MCF7, MCF-7 (breast), read-out: Antiproliferative activity IC50 ± SEM, MCF-7.
From the text: as §1, §2, §3, §4, §5, §6

The subject of series [4] is A-549. The series can be described thus: Antiproliferative assay (MTT). The series is classed as cell-based. Particulars: Homo sapiens, A549, A-549 (lung), read-out: Antiproliferative activity IC50 ± SEM, A-549.
From the text: as §1, §2, §3, §4, §5, §6

Series [5] is described as follows: Cell viability assay (MTT) on normal cells. The format is cell-based. The settings on record: human, MCF-10A normal mammary gland epithelial cells, 4 days incubation. The procedure: This experiment examines the impact of the newly developed compounds 9–29 on normal cell lines to assess their safety level. The vitality of the investigated compounds was assessed using the MCF-10 A cell line, a normal human mammary gland epithelial cell line. Following 4 days of incubation on MCF-10 A cells with each examined compound at a concentration of 50 μM, the vitality of the cells was assessed using the MTT test ([Mahmoud et al., 2022]; [Mekheimer et al., 2022]).
This experiment examines the impact of the newly developed compounds 9–29 on normal cell lines to assess their safety level. The viability of 9–29 was assessed using the MCF-10 A cell line, a normal human mammary gland epithelial cell line. Following 4 days of incubation on MCF-10 A cells with each examined compound at a concentration of 50 μM, the vitality of the cells was assessed using the MTT test ([Mahmoud et al., 2022]; [Mekheimer et al., 2022]). Refer to Supplementary Material A1 for more details. […]
4.2. Biological evaluation
4.2.1. Cytotoxic activity using MTT Assay and evaluation of IC50
MTT assay was carried out to study the effect of compounds on mammary epithelial cells (MCF-10A). The medium in which cells were propagated contained Dulbecco's modified Eagle's medium (DMEM)/ Ham's F-12 medium (1:1) supplemented with epidermal growth factor (20 ng/mL), hydrocortisone (500 ng/mL), insulin (10 μg/mL), 2 mM glutamine and 10% foetal calf serum.
as §3, with “After every 2-3 days, the cells were passaged using trypsin ethylenediamine tetra acetic acid (EDTA). The cells were seeded at a density of 10^4 cells mL-1 in flat-bottomed culture plates containing 96 wells each. After 24 h, medium was removed from the plates and the compounds in (in 0.1%” for “(in 0.1%”, “0.1% DMSO. […]” for “0.1% DMSO.”

Series [6] relates to four cancer cell lines (A-549, MCF-7, Panc-1, HT-29). The series is described as follows: Antiproliferative assay, average over four cancer cell lines. The format is cell-based. The settings on record: Homo sapiens; average of the four cancer cell lines; read-out: Average IC50 (GI50). From the text: Table 2 presents the four cancer cell lines’ median inhibitory concentration (IC50) and GI50 (average IC50) values.
The IC50 values were derived from dose-response tests. The reported data are derived from at least two independent studies, each comprising three replicates per concentration. See Supplementary Material A1 for more details.

In series [7] the test system is Bcl-2. The series is described as follows: Bcl-2 inhibition assay. The series is classed as cell-based, human. The settings on record: A-549 cell line. The method, then: 4.2.8. Bcl-2 inhibition assay
Mix all reagents thoroughly without foaming before use. Wash the microwells twice with approximately 300 μL Wash Buffer per well with thorough aspiration of microwell contents between washes. Take caution not to scratch the surface of the microwells. After the last wash, empty the wells and tap microwell strips on absorbent pad or paper towel to remove excess Wash Buffer. Use the microwell strips immediately after washing or place upside down on a wet absorbent paper for not longer than 15 minutes. […] Add 100 μL of Sample […]
Diluent in duplicate to all standard wells and to the blank wells. Prepare standard (1:2 dilution) in duplicate ranging from 32 ng/mL to 0.5 ng/mL. Add 100 μL of Sample Diluent, in duplicate, to the blank wells. Add 80 μL of Sample Diluent, in duplicate, to the sample wells. Add 20 μL of each Sample, in duplicate, to the designated wells. Add 50 μL of diluted biotin-conjugate to all wells, including the blank wells. Cover with a plate cover and incubate at room temperature, on a microplate shaker at 100 rpm if available, for 2 hours. Remove plate cover and empty the wells.
Wash microwell strips 3 times as described in step 2. Add 100 μL of diluted Streptavidin-HRP to all wells, including the blank wells. Cover with a plate cover and incubate at room temperature, on a microplate shaker at 100 rpm if available, for 1 hour. Remove plate cover and empty the wells.
Wash microwell strips 3 times as described in step 2. Proceed to the next step. Pipette 100 μl of mixed TMB Substrate Solution to all wells, including the blanks. Incubate the microwell strips at room temperature (18° to 25°C) for about 15 minutes, if available on a rotator set at 100 rpm.
Avoid direct exposure to intense light. The point, at which the substrate reaction is stopped, is often determined by the ELISA reader. Many ELISA readers record absorbance only up to 2.0
O.D. Therefore, the color development within individual microwells must be watched by the person running the assay and the substrate reaction stopped before positive wells are no longer properly detectable. Stop the enzyme reaction by quickly pipetting 100 μL of Stop Solution into each well, including the blank wells. It is important that the Stop Solution is spread quickly and uniformly throughout the microwells to completely inactivate the enzyme. Results must be read immediately after the Stop Solution is added or within one hour i f the microwell strips are stored at 2 - 8°C in the dark. Read absorbance of each microwell on a spectrophotometer using 450 nm as the primary wavelength.

Series [8] has as its system Bax. The series can be described thus: Bax activation assay. Particulars: for Bax Conc: A-549 cancer cells. The format is cell-based, human. The procedure:
4.2.7. Bax activation assay
Bring all reagents, except the human Bax-α Standard, to room temperature for at least 30 minutes prior to opening. The human Bax-α Standard solution should not be left at room temperature for more than 10 minutes. All standards, controls and samples should be run in duplicate. Refer to the Assay Layout Sheet to determine the number of wells to be used and put any remaining wells with the desiccant back into the pouch and seal the ziploc. Store unused wells at 4 °C. Pipet 100 μL of Assay Buffer into the S0 (0 pg/mL standard) wells. Pipet 100 μL of Standards #1 through #6 into the appropriate wells. Pipet 100 μL of the Samples into the appropriate wells. Tap the plate gently to mix the contents. Seal the plate and incubate at room temperature on a plate shaker for 1 hour at ~500 rpm. Empty the contents of the wells and wash by adding 400 μL of wash solution to every well. Repeat the wash 4 more times for a total of 5 washes. After the final wash, empty or aspirate the wells and firmly tap the plate on a lint free paper towel to remove any remaining wash buffer.
Pipet 100 μL of yellow Antibody into each well, except the Blank. Seal the plate and incubate at room temperature on a plate shaker for 1 hour at ~500 rpm. Empty the contents of the wells and wash by adding 400 μL of wash solution to every well. Repeat the wash 4 more times for a total of 5 washes. After the final wash, empty or aspirate the wells and firmly tap the plate on a lint free paper towel to remove any remaining wash buffer. Add 100 μL of blue Conjugate to each well, except the Blank. Seal the plate and incubate at room temperature on a plate shaker for 30 minutes […]
Pipet 100 μL of Substrate Solution into each well. Incubate for 30 minutes at room temperature on a plate shaker at ~500 rpm. Pipet 100 μL Stop Solution to each well. Blank the plate reader against the Blank wells, read the optical density at 450 nm. Calculate the average net Optical Density (OD) bound for each standard and sample by subtracting the average Blank OD from the average OD for each standard and sample. Using linear graph paper, plot the Average Net OD for each standard versus Bax concentration in each standard. Approximate a straight line through the points.
The concentration of Bax in the unknowns can be determined by interpolation. […]

What is called IC50 is the concentration that inhibits the measured activity by half. One may read the viability as a read-out of living cells in per cent, often relative to untreated cells. The low end stands for more harm to the cells, the high end for less harm to the cells. As a reminder, the melting point is the temperature of the solid-liquid transition.

Each structure is given as a SMILES string.

Molecule `COc1ccc(-c2cc(-c3cccc(OC)c3)nc(SCc3ccccc3)n2)cc1` [Compound 21, 2-(Benzylthio)-6-(3-methoxyphenyl)-4-(4-methoxyphenyl)pyrimidine] came in with a melting point of 245 to 247 °C. The IC50 in series [1] was determined as 82 ± 8 nM. In addition, the IC50 in series [2] was 82 ± 8 nM. Moreover, the IC50 in series [3] turned out to be 86 ± 8 nM. The IC50 in [4] was determined as 83 ± 7 nM. This molecule returned a viability at 4 days, 50 µM in [5] of 89%. Also, in series [6], the IC50 stood at 83 nM.

With `C#Cc1cccc(Nc2ncnc3cc(OCCOC)c(OCCOC)cc23)c1` [Erlotinib, reference compound], the IC50 came out at 30 ± 3 nM in series [1], 30 ± 3 nM in series [2], 40 ± 3 nM in series [3] and 30 ± 3 nM in [4].

In the case of `CN[C@@H]1C[C@H]2O[C@@](C)([C@@H]1OC)n1c3ccccc3c3c4c(c5c6ccccc6n2c5c31)C(=O)NC4` [Staurosporine, reference compound], the “Bcl-2 Conc” value in [7] was 1.10 ng/mL. Further, the “Bcl-2 Fold reduction” value in series [7] (versus control) came out at 5 fold. Also, the entries for the “Bax Conc” value in [8] and in [8] (listed as staurosporine) were 280 ± 5 pg/mL and 280 pg/mL, respectively. The “Bax Fold change” value in [8] (compared to untreated A-549 cancer cells) is listed as 35 fold.
